What all share (assay type): cell-based
Test [1] concerns human lung squamous carcinoma cells (NCI-H226). In words: scratch assay, migration of NCI-H226 cells. To be noted: NCI-H226, 10 μM, 48 hours; control group 65.31 ± 3.19. As for the experimental part: (§1) In the scratch assay, the cell migration rate was negatively correlated with the inhibitory effect of the drug component on tumor cell migration ability. The cell migration inhibition experiment was described as follows: tumor cells were cultured in vitro, cells in logarithmic growth phase were collected and seeded evenly in a 24-well plate at a density of 1-2×10^5 cells/well; the cells were cultured in a cell incubator until a monolayer was formed; a scratch tool was used to make a “-” (straight) scratch on the monolayer of cells; the cells were washed 1-3 times with PBS, and a medium (with 2% fetal bovine serum) containing specific test components was added to the culture. Experimental grouping: PBS control group; polypeptide or derivative thereof treatment group (N1-N54), 10 μM. Three independent parallel wells were set up in each group, and the cells were cultured continuously in a cell incubator for 48 hours. […] At least 3 representative images for each well were taken. ImageJ software was used to count the migration distance of the cells, and the cell migration rate was calculated as: cell migration rate (%)=(width of original scratch−width of current scratch)/width of original scratch×100.
This example was a scratch assay to evaluate the inhibitory effect of the polypeptide or derivative thereof (N1-N54) on the migration ability of human lung squamous carcinoma cells (NCI-H226). The experimental method was as described in Example 2.

In test [2] the test system is human pharyngeal squamous-cell carcinoma cells (Fadu). In words: scratch assay, migration of Fadu cells. The note with it: 10 μM, 48 hours, control group 28.76 ± 4.08. The protocol: as §1
This example was a scratch assay to evaluate the inhibitory effect of the polypeptide or derivative thereof (N1-N54) on the migration ability of human pharyngeal squamous-cell carcinoma cells (Fadu). The experimental method was as described in Example 2.

Test [3] relates to human colon cancer cells (HCT-116). Description: scratch assay, migration of HCT-116 cells. The note with it: HCT-116, 10 μM, 48 hours; control group 47.78 ± 6.07. As for the experimental part:
as §1
This example was a scratch assay to evaluate the inhibitory effect of the polypeptide or derivative thereof (N1-N54) on the migration ability of human colon cancer cells (HCT-116). The experimental method was as described in Example 2.

In test [4] the test system is human pancreatic cancer cells (PANC-1). Description: transwell migration assay, PANC-1 cells. To be noted: PANC-1 transwell migration, 10 μM, 24 hours; control group 360 ± 60. As for the experimental part: The Transwell chamber system was used in the transwell cell migration experiment. The chamber has an upper layer and a lower layer, which are separated by an artificial semipermeable membrane in the middle. Cells that have migrated through the semi-permeable membrane will attach to the lower surface of the semi-permeable membrane. The migration ability is evaluated by counting the number of cells on the lower surface of the semi-permeable membrane. The number of cells that have migrated is negatively correlated with the inhibitory effect of the drug on the migration ability of the tumor cells. Transwell migration assay was performed as follows: tumor cells were cultured in vitro, cells in logarithmic growth phase were collected, and cell suspension was prepared with fresh serum-free medium at a density of 2-3×10^5 cells/mL. Cells were inoculated, 100 μL/well cell suspension (serum-free medium) in the upper chamber and 600 μL/well complete culture medium in the lower chamber. After incubated in 37° C., 5% CO2 incubator for 4-5 hours, serum-free medium (100 μL/well) was added to the control group, and serum-free medium containing polypeptide or derivative thereof (N1-N54) was added to the upper chamber of the treatment group (100 μL/well), the final concentration of the peptide or derivative thereof in the upper chamber was 10 μM. The cells were incubated continuously for 24 hours, and then fixed with methanol and stained with crystal violet. Images were taken under a microscope and the number of migrated cells was counted with ImageJ.
This example was a transwell cell migration experiment to evaluate the inhibitory effect of the polypeptide or derivative thereof (N1-N54) on the migration ability of human pancreatic cancer cells (PANC-1). The experimental method was as described in Example 3.

Test [5] relates to human liver adenocarcinoma cells (SK-HEP-1). In words: transwell invasion assay, SK-HEP-1 cells. To be noted: SK-HEP-1 transwell invasion, 10 μM, 24 hours; control group 767 ± 91. The source says:
The Transwell chamber system was used in the transwell cell invasion experiment. The chamber has an upper layer and a lower layer, which are separated by an artificial semipermeable membrane in the middle. The upper surface of the semipermeable membrane is coated with a layer of artificial matrigel to simulate extracellular matrix. Cells that have invaded through the matrigel and semi-permeable membrane will attach to the lower surface of the semi-permeable membrane. The invasion ability is evaluated by counting the number of cells on the lower surface of the semi-permeable membrane. The number of cells that have invaded is negatively correlated with the inhibitory effect of the drug on the invasion ability of the tumor cells. Transwell invasion assay was performed as follows: tumor cells were cultured in vitro, cells in logarithmic growth phase were collected, and cell suspension was prepared with fresh serum-free medium at a density of 2-3×10^5 cells/mL. Cells were inoculated, 100 μL/well cell suspension (serum-free medium) in the upper chamber and 600 μL/well complete culture medium in the lower chamber. After incubated in 37° C., 5% CO2 incubator for 4-5 hours, serum-free medium (100 μL/well) was added to the control group, and serum-free medium containing polypeptide or derivative thereof (N1-N54) was added to the upper chamber of the treatment group (100 μL/well), the final concentration of the peptide or derivative thereof in the upper chamber was 10 μM. The cells were incubated continuously for 24 hours, and then fixed with methanol and stained with crystal violet. Images were taken under a microscope and the number of invaded cells was counted with ImageJ.
This example was a transwell cell invasion experiment to evaluate the inhibitory effect of the polypeptide or derivative thereof (N1-N54) on the invasion ability of human liver adenocarcinoma cells (SK-HEP-1). The experimental method was as described in Example 4.

The subject of test [6] is human thyroid cancer cells (FRO). In words: scratch assay, migration of FRO cells. The note with it: 10 μM, 48 hours, control group 60.34 ± 8.32. The protocol: as §1
This example was a scratch assay to evaluate the inhibitory effect of the polypeptide or derivative thereof (N1-N54) on the migration ability of human thyroid cancer cells (FRO). The experimental method was as described in Example 2.

The test system of test [7] is human melanoma cells (A375). Description: scratch assay, migration of A375 cells. The note with it: A375, 10 μM, 48 hours; control group 44.03 ± 6.21. The protocol: as §1
This example was a scratch assay to evaluate the inhibitory effect of the polypeptide or derivative thereof (N1-N54) on the migration ability of human melanoma cells (A375). The experimental method was as described in Example 2.

Test [8] concerns human oral epidermoid carcinoma KB cells. In words: scratch assay, migration of KB cells. To be noted: 10 μM, 48 hours, control group 54.03 ± 4.21. As for the experimental part:
as §1
This example was a scratch assay to evaluate the inhibitory effect of the polypeptide or derivative thereof (N1-N54) on the migration ability of human oral epidermoid carcinoma cells (KB). The experimental method was as described in Example 2.

Ends that are not written are not given here. PEG = not defined here

For the substance “N9: SEQ ID NO: 1 with deletion of positions 15-18 and PEG modification at the amino terminal ({PEG}-YRVRFLAKENVTQD; reading uncertain)”, the “Migration rate (%) (mean ± SD, P)” value in test [1] is listed as 35.47 ± 5.20,** %; in test [2], 16.82 ± 3.57,* %; in test [3], 25.96 ± 3.84,** %; in test [6] it was 20.51 ± 5.04,** %; in test [7], 8.96 ± 2.46,*** %; in test [8], 9.27 ± 2.63,*** %. Moreover, the “Number of cells (mean ± SD, P), migrated cells” value in test [4] is given as 148 ± 16,***. In addition, the “Number of cells (mean ± SD, P), invaded cells” value in test [5] was 288 ± 35,***.
Turning to “N10: SEQ ID NO: 1 with deletion of positions 15-18 and 1-3 and PEG modification at the carboxyl terminal (RFLAKENVTQD-{PEG}; reading uncertain)”, the “Migration rate (%) (mean ± SD, P)” value is 17.75 ± 5.87,*** % in test [1]; 15.93 ± 4.73,* % in test [2]; 8.70 ± 2.39,*** % in test [3]; 14.14 ± 3.64,*** % in test [6]; 6.71 ± 2.07,*** % in test [7]; 13.87 ± 3.48,*** % in test [8]. Moreover, the “Number of cells (mean ± SD, P), migrated cells” value in test [4] is given as 254 ± 20,*. Also, the “Number of cells (mean ± SD, P), invaded cells” value in test [5] is 460 ± 43,**.
Consider “N11: SEQ ID NO: 1 with deletion of positions 15-18 and 1-3 and PEG modification at the amino terminal ({PEG}-RFLAKENVTQD; reading uncertain)”, for which the “Migration rate (%) (mean ± SD, P)” value in test [1] is 21.77 ± 5.03,*** %; in test [2], 19 ± 5.37,* %; in test [3] it was 13.81 ± 2.92,*** %; in test [6], 10.09 ± 4.33,*** %; in test [7], 11.54 ± 2.23,*** %; in test [8], 8.29 ± 1.96,*** %. The “Number of cells (mean ± SD, P), migrated cells” value in test [4] is 239 ± 26,*. Also, the “Number of cells (mean ± SD, P), invaded cells” value in test [5] is given as 398 ± 36,***.
“N12: SEQ ID NO: 1 with deletion of position 18 and positions 1-2 (VRFLAKENVTQDAED)”: the “Migration rate (%) (mean ± SD, P)” value was 13.18 ± 6.31,*** % in test [1]; 17.72 ± 2.53,** % in test [2]; 8.14 ± 3.00,*** % in test [3]; 7.67 ± 3.29,*** % in test [6]; 12.46 ± 3.75,*** % in test [7]; 11.53 ± 2.78,*** % in test [8]. Also, the “Number of cells (mean ± SD, P), migrated cells” value in test [4] is given as 246 ± 14,*. The “Number of cells (mean ± SD, P), invaded cells” value in test [5] is listed as 308 ± 42,***.
Take “N13: SEQ ID NO: 1 with deletion of positions 15-18 and positions 1-5 (LAKENVTQD)”: the “Migration rate (%) (mean ± SD, P)” value is reported as 11.29 ± 8.97,*** % in test [1]; 9.38 ± 2.46,*** % in test [2]; 12.19 ± 3.22,*** % in test [3]; 11.99 ± 2.39,*** % in test [6]; 16.28 ± 4.19,** % in test [7]; 14.53 ± 3.53,** % in test [8]. In addition, the “Number of cells (mean ± SD, P), migrated cells” value in test [4] is reported as 255 ± 24,*. Moreover, the “Number of cells (mean ± SD, P), invaded cells” value in test [5] is 258 ± 32,****.
Consider “N14: SEQ ID NO: 1 with deletion of positions 1-5 and addition of one amino acid at the carboxyl terminal (LAKENVTQDAEDNC)”, for which the “Migration rate (%) (mean ± SD, P)” value in test [1] is 19.97 ± 2.94,*** %; in test [2], 12.90 ± 2.47,** %; in test [3] it was 12.24 ± 2.32,*** %; in test [6], 14.09 ± 2.47,*** %; in test [7] it was 6.28 ± 1.12,*** %; in test [8], 11.22 ± 2.66,*** %. Further, the “Number of cells (mean ± SD, P), migrated cells” value in test [4] is on record as 263 ± 16,*. Also, the “Number of cells (mean ± SD, P), invaded cells” value in test [5] was 329 ± 54,***.
Regarding “N15: SEQ ID NO: 1 with substitution N18R and addition of one amino acid to the carboxyl terminal (YRVRFLAKENVTQDAEDRC)”, the “Migration rate (%) (mean ± SD, P)” value in test [1] is 35.05 ± 3.95,** %; in test [2], 12.45 ± 4.28,** %; in test [3] it was 10.41 ± 2.99,*** %; in test [6] it was 8.84 ± 2.27,*** %; in test [7], 10.62 ± 2.53,*** %; in test [8], 40.62 ± 3.53,* %. Further, the “Number of cells (mean ± SD, P), migrated cells” value in test [4] is recorded as 220 ± 18,**. Also, the “Number of cells (mean ± SD, P), invaded cells” value in test [5] is reported as 418 ± 36,**.
As for “N16: SEQ ID NO: 1 with substitution A7R and addition of one amino acid at the carboxyl terminus (YRVRFLRKENVTQDAEDNC)”, the “Migration rate (%) (mean ± SD, P)” value in test [1] is listed as 21.10 ± 8.01,*** %; in test [2], 5.51 ± 1.32,*** %; in test [3], 9.39 ± 2.06,*** %; in test [6] it was 11.72 ± 4.41,*** %; in test [7] it was 11.28 ± 3.14,*** %; in test [8] it was 18.28 ± 3.45,** %. The “Number of cells (mean ± SD, P), migrated cells” value in test [4] is recorded as 230 ± 28,*. Further, the “Number of cells (mean ± SD, P), invaded cells” value in test [5] was 398 ± 43,***.

The record behind these values is US20220280594A1, “APPLICATION OF POLYPEPTIDE OR DERIVATIVE THEREOF” (CHENGDU HUITAI BIOMEDICINE CO., LTD., priority 2019, published 2022).
